Test results taken from patent publication US7238689B2, “Isoxazoline derivative and herbicide comprising the same as active ingredient” (Ihara Chemical Industry Co., Ltd., priority 2001, dated 2007).

Experiments:
Assay type in all cases: in vivo
Design in all cases: scale not given here
[1] = system: Monochoria vaginalis (Murm. f.) Presl var. plantaginea (Roxb.) Solms-Laub.; assay: Herbicidal effect by paddy field soil treatment; conditions: wettable powder, active ingredient 1000 g/ha, examined at the 21st day from the treatment
Method: (§1) A paddy field soil was filled in a plastic pot of 100 cm^2 and subjected to puddling. Then, seeds of Echinochloa oryzicola Vasing and Monochoria vaginalis (Murm. f.) Presl var. plantaginea (Roxb.) Solms-Laub. were sowed and water was filled in a depth of 3 cm. Next day, wettable powders produced in accordance with the Formulation 1 were diluted with water and dropped on the water surface. The application amount of each wettable powder was 1,000 g per 1 hectare in terms of the active ingredient. Then, breeding was made in a greenhouse, and the herbicidal effect of each wettable powder was examined at the 21st day from the treatment in accordance with the standard shown in Table 21.

[2] = system: Echinochloa oryzicola Vasing; assay: Herbicidal effect by paddy field soil treatment; conditions: wettable powder, active ingredient 1000 g/ha, examined at the 21st day from the treatment
Method: as §1

[3] = system: Setaria viridis (L.) Beauv.; assay: Herbicidal effect by upland field soil treatment; conditions: active ingredient 1000 g/ha, examined at 21st day from treatment
Text: (§2) An upland field soil was filled in a plastic pot of 80 cm^2. Seeds of Echinochloa crus-galli (L.) Beauv. var. crusgalli and Setaria viridis (L.) Beauv. were sowed, followed by covering with the same soil. […] Then, breeding was made in a greenhouse, and the herbicidal effect of each wettable powder was examined at the 21st day from the treatment in accordance with the standard shown in Table 21.

[4] = system: Echinochloa crus-galli (L.) Beauv. var. crusgalli; assay: Herbicidal effect by upland field soil treatment; conditions: active ingredient 1000 g/ha, examined at 21st day from treatment
Text: as §2

| Structure (SMILES) | Herbicidal effect index, Monochoria vaginalis (Burm. F.) Presl var. plantaginea (Roxb.) Solms-Laub. [1] | Herbicidal effect index, Echinochloa oryzicola Vasing [2] | herbicidal effect (index per standard of Table 21), Setaria viridis (L.) Beauv. [3] | herbicidal effect (index per standard of Table 21), Echinochloa curs-galli (L.) Beauv. Var. crus-galli [4] |
| --- | --- | --- | --- | --- |
| CC1(C)CC(S(=O)(=O)Cc2ccncc2)=NO1 [9-0003] | 5 | 5 | – | – |
| CCOC(=O)Cn1nc(Cl)c(CS(=O)(=O)C2=NOC(C)(C)C2)c1C(F)(F)F [3-0137] | 5 | 5 | 5 | 5 |
| CC1(C)CC(S(=O)(=O)Cc2ccc[n+]([O-])c2)=NO1 [7-0004] | 5 | 5 | 4 | 5 |
| CCOC(=O)Cn1nc(C(F)(F)F)c(CS(=O)(=O)C2=NOC(C)(C)C2)c1Cl [3-0136] | – | – | 5 | 5 |
| CC1(C)CC(S(=O)(=O)Cc2c(Cl)sc(Cl)c2Cl)=NO1 [2-0006] | 5 | 5 | 4 | 5 |
| CC1(C)CC(S(=O)(=O)Cc2c(C(F)(F)F)nn(CC3CCCC3)c2Cl)=NO1 [3-0100] | 5 | 5 | – | – |
| CC(C)C(SC1=NOC(C)(C)C1)c1cncnc1C(F)(F)F (racemic) [8-0012] | 5 | 5 | – | – |
| C#CCOc1c(CS(=O)(=O)C2=NOC(C)(C)C2)c(C(F)(F)F)nn1C [3-0053] | – | – | 5 | 5 |
| CC(=O)Cn1nc(Cl)c(CS(=O)(=O)C2=NOC(C)(C)C2)c1C(F)(F)F [3-0143] | – | – | 5 | 5 |
| Cc1sc(C)c(CS(=O)(=O)C2=NOC(C)(C)C2)c1C [2-0007] | – | – | 4 | 4 |
| COc1c(CS(=O)(=O)C2=NOC(C)(C)C2)c(-c2ccccc2)cc[n+]1[O-] [7-0007] | – | – | 4 | 5 |
| COc1nc(OC)c(CS(=O)(=O)C2=NOC(C)(C)C2)c(C(F)(F)F)n1 [8-0007] | – | – | 5 | 5 |
| CCCCOc1c(CS(=O)(=O)C2=NOC(C)(C)C2)c(C(F)(F)F)nn1C [3-0048] | – | – | 5 | 5 |
| Cn1nc(C(F)(F)F)c(CS(=O)(=O)C2=NOC(C)(C)C2)c1OCC(F)F [3-0056] | – | – | 5 | 5 |
| CC(=O)Cn1nc(C(F)(F)F)c(CS(=O)(=O)C2=NOC(C)(C)C2)c1Cl [3-0142] | – | – | 5 | 5 |
| CC1(C)CC(S(=O)(=O)Cc2c(Cl)nn(CC3CCCC3)c2C(F)(F)F)=NO1 [3-0101] | 5 | 5 | – | – |
| CC1(C)CC(S(=O)(=O)Cc2cc3ccccc3s2)=NO1 [10-0002] | 4 | 5 | – | – |
| CC1(C)CC(S(=O)(=O)Cc2sc3ccccc3c2Br)=NO1 [10-0011] | 5 | 5 | – | – |
| Cn1nc(C(F)(F)F)c(CS(=O)(=O)C2=NOC(C)(C)C2)c1Oc1ccc(Cl)cc1 [3-0063] | – | – | 5 | 5 |
| Cn1nc(C(F)(F)F)c(CS(=O)(=O)C2=NOC(C)(C)C2)c1OCC1CCCC1 [3-0051] | 5 | 5 | – | – |
| CC1(C)CC(S(=O)(=O)Cc2c(C(F)(F)F)nn(C(=O)c3ccccc3)c2Cl)=NO1 [3-0178] | 5 | 5 | – | – |

| Structure (SMILES) | Herbicidal effect index, Monochoria vaginalis (Burm. F.) Presl var. plantaginea (Roxb.) Solms-Laub. [1] | Herbicidal effect index, Echinochloa oryzicola Vasing [2] | herbicidal effect (index per standard of Table 21), Setaria viridis (L.) Beauv. [3] | herbicidal effect (index per standard of Table 21), Echinochloa curs-galli (L.) Beauv. Var. crus-galli [4] |
| --- | --- | --- | --- | --- |
| CCOc1onc(C(F)(F)F)c1CS(=O)(=O)C1=NOC(C)(C)C1 [4-0006] | – | – | 5 | 5 |
| CCOc1ncnc(C(F)(F)F)c1CS(=O)(=O)C1=NOC(C)(C)C1 [8-0004] | – | – | 5 | 5 |
| COc1ncnc(OC)c1CS(=O)(=O)C1=NOC(C)(C)C1 [8-0005] | – | – | 4 | 5 |
| CC1(C)CC(S(=O)(=O)Cc2c(Cl)nn(C3CCCC3)c2C(F)(F)F)=NO1 [3-0090] | 5 | 5 | – | – |
| CC(=O)n1nc(C(F)(F)F)c(CS(=O)(=O)C2=NOC(C)(C)C2)c1Cl [3-0177] | 5 | 5 | – | – |
| CC1(C)CC(S(=O)(=O)Cc2c(C(F)(F)F)nn(CC3CCCCC3)c2Cl)=NO1 [3-0102] | 5 | 5 | – | – |
| CC1(C)CC(S(=O)(=O)Cc2c(C(F)(F)F)nn(-c3ccccc3)c2OC(F)F)=NO1 [3-0160] | 5 | 5 | – | – |
| CC1(C)CC(S(=O)(=O)Cc2nn(C(F)F)c3c2CCCC3)=NO1 [6-0001] | – | – | 5 | 5 |
| CC1(C)CC(S(=O)(=O)Cc2c[n+]([O-])ccc2C(F)(F)F)=NO1 [7-0002, 5,5-dimethyl-3-(4-trifluoromethyl-pyridine-N-oxide-3-ylmethylsulfonyl)-2-isoxazoline] | – | – | 5 | 5 |
| Cn1nc(C(F)F)c(CSC2=NOC(C)(C)C2)c1Cl [3-0020, 3-(5-chloro-3-difluoromethyl-1-methyl-1H-pyrazol-4-ylmethylthio)-5,5-dimethyl-2-isoxazoline] | – | – | 5 | 5 |
| Cc1onc(C(F)(F)F)c1CS(=O)(=O)C1=NOC(C)(C)C1 [4-0001, 5,5-dimethyl-3-(5-methyl-3-trifluoromethylisoxazol-4-ylmehtylsulfonyl)-2-isoxazoline] | 5 | 5 | – | – |
| CC1(C)CC(S(=O)(=O)Cc2c(C(F)(F)F)nn(C3CCCC3)c2Cl)=NO1 [3-0089] | 5 | 5 | – | – |
| COc1nn(C)c(C(F)(F)F)c1CS(=O)(=O)C1=NOC(C)(C)C1 [3-0043] | – | – | 5 | 5 |
| CC1(C)CC(S(=O)(=O)Cc2csc3ccc(Cl)cc23)=NO1 [10-0008] | 5 | 5 | – | – |
| CC1(C)CC(S(=O)(=O)Cc2c(Cl)nn(CC3CCCCC3)c2C(F)(F)F)=NO1 [3-0103] | 5 | 5 | – | – |
| CC1(C)CC(S(=O)(=O)Cc2c(C(F)(F)F)nn(S(=O)(=O)c3ccccc3)c2Cl)=NO1 [3-0176] | 5 | 5 | – | – |
| CC1(C)CC(S(=O)(=O)Cc2c(C(F)(F)F)nn(CC(N)=O)c2Cl)=NO1 [3-0138] | – | – | 5 | 4 |
| CC1(C)CC(S(=O)(=O)Cc2ccco2)=NO1 [1-0006] | – | – | 4 | 5 |
| Cn1nc(C(F)(F)F)c(CS(=O)(=O)C2=NOC(C)(C)C2)c1OCC1CC1 [3-0050] | – | – | 5 | 5 |
| CC1(C)CC(S(=O)(=O)Cc2nc(Cc3ccccc3)no2)=NO1 [9-0007] | – | – | 4 | 4 |
| Cn1nc(C(F)(F)F)c(CS(=O)(=O)C2=NOC(C)(C)C2)c1Oc1cccc(Cl)c1 [3-0061] | 5 | 5 | – | – |
